Active and inactive are the calls of the source. The rule behind the calls is not given here.
Legend:
[1] = biological target: Proteasome Macropain subunit (Homo sapiens) (UniProt P49721); test: Inhibition of 20s constitutive proteasome beta2 trypsin-like activity in human erythrocytes using Boc-Leu-Arg-Arg-AMC as substrate at 50 uM after 10 mins by fluorescence assay relative to control; assay type: cell-based
[2] = biological target: T1, Proteasome component C5 (Homo sapiens) (UniProt P20618); test: Inhibition of 20s constitutive proteasome beta1 caspase-like activity in human erythrocytes using Z-Leu-Leu-Glu-AMC as substrate at 50 uM after 10 mins by fluorescence assay relative to control; assay type: cell-based
T1 sequence (whole entry): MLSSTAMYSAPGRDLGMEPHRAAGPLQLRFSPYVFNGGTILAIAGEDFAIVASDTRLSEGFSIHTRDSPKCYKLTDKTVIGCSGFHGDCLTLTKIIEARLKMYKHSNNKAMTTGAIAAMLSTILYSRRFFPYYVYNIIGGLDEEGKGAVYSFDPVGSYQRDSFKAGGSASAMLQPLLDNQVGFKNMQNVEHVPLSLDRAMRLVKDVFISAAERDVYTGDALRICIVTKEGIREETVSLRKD

[3] = Growth inhibition of human MM1R cells after 24 hrs by MTT assay; assay type: functional; conditions: MM.1R
[4] = biological target: T2, Proteasome Macropain subunit MB1 (Homo sapiens) (UniProt P28074); test: Inhibition of 20s constitutive proteasome beta5 chymotrypsin-like activity in human erythrocytes using Suc-Leu-Leu-Val-Tyr-AMC as substrate at 50 uM after 10 mins by fluorescence assay relative to control; assay type: cell-based
T2 sequence (whole entry): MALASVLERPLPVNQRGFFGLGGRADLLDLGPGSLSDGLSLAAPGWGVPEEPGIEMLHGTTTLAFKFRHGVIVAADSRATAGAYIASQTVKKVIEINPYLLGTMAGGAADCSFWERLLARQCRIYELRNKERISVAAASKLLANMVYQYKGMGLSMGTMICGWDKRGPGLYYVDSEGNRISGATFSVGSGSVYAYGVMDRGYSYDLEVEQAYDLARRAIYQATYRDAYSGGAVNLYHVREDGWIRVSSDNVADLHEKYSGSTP

[5] = biological target: Proteasome Macropain subunit (Homo sapiens) (UniProt P49721); test: Inhibition of 20s immunoproteasome beta2 trypsin-like activity in human spleen using Boc-Leu-Arg-Arg-AMC as substrate at 50 uM after 10 mins by fluorescence assay relative to control
[6] = biological target: T2, Proteasome Macropain subunit MB1 (Homo sapiens); test: Inhibition of 20s immunoproteasome beta5 chymotrypsin-like activity in human spleen using Suc-Leu-Leu-Val-Tyr-AMC as substrate at 50 uM after 10 mins by fluorescence assay relative to control
[7] = biological target: T3, Proteasome Macropain subunit MB1 (Homo sapiens, UniProt P28074); test: Inhibition of 20s constitutive proteasome beta5 chymotrypsin-like activity in human erythrocytes using Suc-Leu-Leu-Val-Tyr-AMC as substrate after 10 mins by fluorescence assay
T3 sequence (P28074 whole entry): T2 sequence (whole entry)

[8] = biological target: T2, Proteasome Macropain subunit MB1 (Homo sapiens); test: Selectivity ratio of inhibitory concentration for 20s constitutive proteasome beta5 chymotrypsin-like activity in human erythrocytes to Ki for 20s immunoproteasome beta5 chymotrypsin-like activity in human spleen; assay type: cell-based
[9] = biological target: T2, Proteasome Macropain subunit MB1 (Homo sapiens); test: Reversible inhibition of 20s constitutive proteasome beta5 chymotrypsin-like activity in human erythrocytes using Suc-Leu-Leu-Val-Tyr-AMC as substrate at 50 uM preincubated for 30 mins followed by compound dilution measured after 30 mins by fluorescence assay; assay type: cell-based

Sequence of Proteasome Macropain subunit (Homo sapiens) (P49721 whole entry): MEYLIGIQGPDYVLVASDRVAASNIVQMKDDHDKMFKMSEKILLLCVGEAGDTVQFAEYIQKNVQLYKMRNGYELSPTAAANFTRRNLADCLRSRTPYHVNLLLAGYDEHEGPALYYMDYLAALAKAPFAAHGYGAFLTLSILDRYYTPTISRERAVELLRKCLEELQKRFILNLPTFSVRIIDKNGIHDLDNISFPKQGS

## COc1ccc(/C=C2\NC(=S)N(c3ccccc3)C2=O)cc1
[1]
  inhibition: 35%
[2]
  inhibition: 56%
[3]
  IC50: 19.4 µM
[4]
  inhibition: 45%
[5]
  inhibition: 29%

## O=C1/C(=C/c2cccc(Oc3ccccc3)c2)NC(=S)N1c1ccccc1
[1]
  inhibition: inactive
[2]
  inhibition: inactive
[4]
  inhibition: 39%
[6]
  inhibition: 56%
[5]
  inhibition: 32%

## COc1cc(/C=C2\NC(=S)N(c3ccccc3)C2=O)ccc1O
[7]
  Ki: 23.6 µM
[1]
  inhibition: 32%
[2]
  inhibition: 54%
[3]
  IC50: 20.2 µM

## COc1ccc(/C=C2\NC(=S)N(c3ccccc3)C2=O)cc1O
[1]
  inhibition: 37%
[2]
  inhibition: 28%
[3]
  IC50: 40.7 µM
[4]
  inhibition: 45%
[5]
  inhibition: 45%
[8]
  Ratio: 20

## COc1ccc(/C=C2\NC(=S)N(c3ccccc3)C2=O)cc1OC
[9]
  inhibition: Active
[7]
  Ki: 13.6 µM
[1]
  inhibition: 29%
[2]
  inhibition: 58%
[3]
  IC50: 36.7 µM
[5]
  inhibition: 50%
[8]
  Ratio: 7

## O=C1CNC(=S)N1c1cccc2ccccc12
[1]
  inhibition: 38%
[2]
  inhibition: 47%
[4]
  inhibition: inactive
[6]
  inhibition: inactive
[5]
  inhibition: inactive

## O=C1/C(=C/c2ccc(Oc3ccccc3)cc2)NC(=S)N1c1ccccc1
[1]
  inhibition: 5%
[2]
  inhibition: inactive
[4]
  inhibition: 13%
[6]
  inhibition: 58%
[5]
  inhibition: 53%

## O=C1CNC(=S)N1c1ccccc1
[1]
  inhibition: inactive
[2]
  inhibition: 32%
[4]
  inhibition: 47%
[6]
  inhibition: 53%
[5]
  inhibition: inactive

## O=C1/C(=C/c2ccc(Oc3ccccc3)cc2)NC(=S)N1c1cccc2ccccc12
[1]
  inhibition: 57%
[4]
  inhibition: 20%
[6]
  inhibition: 56%

## CSc1ccc(/C=C2\NC(=S)N(c3ccccc3)C2=O)cc1
[2]
  inhibition: 59%
[4]
  inhibition: 28%
[6]
  inhibition: 50%

## CC(C)CC(NC(=O)[C@H](CC(C)C)NC(=O)OCc1ccccc1)C(=O)N[C@H](C=O)CC(C)C (single isomer, unassigned) [MG-132]
[3]
  IC50: 14.4 µM

## COc1cccc(/C=C2\NC(=S)N(c3ccccc3)C2=O)c1
[7]
  Ki: 17.9 µM
[1]
  inhibition: 36%
[2]
  inhibition: 52%
[3]
  IC50: 25.9 µM
[5]
  inhibition: 18%
